Experimental findings from patent US11564928B1, “Cannabinoid receptor type 2 (CB2) modulators and uses thereof” (Teon Therapeutics, Inc., priority 2020, dated 2023) are described below.

The target of one assay is human CB2 receptor (Homo sapiens (Human), UniProt P34972). As to the kind of experiment: CB2 receptor binding assay ([3H]CP-55,940 displacement, HEK-293 membranes).
Another assay has as its target human recombinant CB1R (Homo sapiens (Human), UniProt P21554). As to the kind of experiment: CB1 receptor binding assay ([3H]CP-55,940 displacement, HEK-293 membranes). A digest of the protocol: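 Membranes from HEK-293 cells expressing human recombinant CB1R or CB2R were incubated with [3H]CP-55,940 and compound for 120 min at 37 °C in duplicate. The CB2R incubation buffer was 50 mM Tris-HCl, 5 mM MgCl2, 1 mM CaCl2, 0.2% BSA, pH 7.4. Bound radioactivity was filtered and counted, and IC50 was converted to Ki by Cheng–Prusoff.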

Setting [1] is: membranes of HEK-293 cells with human recombinant CB1R, [3H]CP-55,940, class symbols, read-out: CB1 IC50.
Where [2] appears, read: membranes of HEK-293 cells with human recombinant CB2R, [3H]CP-55,940, class symbols, read-out: CB2 IC50.
Where [3] appears, read: membranes of HEK-293 cells with human recombinant CB2R, [3H]CP-55,940, read-out: CB2 IC50.
The mark [4] stands for this setting: membranes of HEK-293 cells with human recombinant CB1R, [3H]CP-55,940, read-out: CB1 IC50.

Structures are written as SMILES. Like-named read-outs stand apart in the source and are kept apart here.

human recombinant CB1R, sequence (P21554 whole entry): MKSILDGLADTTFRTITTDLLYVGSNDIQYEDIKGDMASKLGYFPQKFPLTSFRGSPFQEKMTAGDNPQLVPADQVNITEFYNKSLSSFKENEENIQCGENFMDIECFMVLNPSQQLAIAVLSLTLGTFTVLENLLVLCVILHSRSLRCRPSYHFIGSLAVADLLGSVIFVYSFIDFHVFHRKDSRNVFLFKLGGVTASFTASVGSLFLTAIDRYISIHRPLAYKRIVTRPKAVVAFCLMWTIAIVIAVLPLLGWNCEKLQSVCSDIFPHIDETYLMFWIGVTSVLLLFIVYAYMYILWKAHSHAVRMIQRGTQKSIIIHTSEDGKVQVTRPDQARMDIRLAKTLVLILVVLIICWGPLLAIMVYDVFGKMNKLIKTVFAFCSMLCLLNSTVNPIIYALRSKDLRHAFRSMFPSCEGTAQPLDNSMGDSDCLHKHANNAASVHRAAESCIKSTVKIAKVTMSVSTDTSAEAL
human CB2 receptor, sequence (P34972 whole entry): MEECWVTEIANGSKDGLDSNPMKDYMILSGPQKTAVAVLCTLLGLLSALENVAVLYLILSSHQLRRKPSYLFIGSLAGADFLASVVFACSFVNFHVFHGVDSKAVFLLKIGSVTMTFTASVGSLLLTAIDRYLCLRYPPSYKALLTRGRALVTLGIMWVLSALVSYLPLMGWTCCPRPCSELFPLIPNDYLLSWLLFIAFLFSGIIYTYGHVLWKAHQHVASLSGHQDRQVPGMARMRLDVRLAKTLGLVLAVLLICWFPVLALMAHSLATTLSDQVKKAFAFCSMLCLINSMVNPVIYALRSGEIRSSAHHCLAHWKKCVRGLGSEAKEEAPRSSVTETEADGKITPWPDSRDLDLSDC

One may read the IC50 as the concentration at which inhibition is half-maximal. As for `O=C(NC12CC(C1)C2)c1c(O)c2cc(-c3ccc(F)cc3)cnc2n(CCN2CCC(F)CC2)c1=O` [Compound 133, N-(bicyclo[1.1.1]pentan-1-yl)-6-(4-fluorophenyl)-4-hydroxy-2-oxo-1-(2-(4-fluoropiperidin-1-yl)ethyl)-1,2-dihydro-1,8-naphthyridine-3-carboxamide], the IC50 was 100 to 999 nM on human CB2 receptor and above 1000 nM at human recombinant CB1R (setting [1]).

Turning to `O=C(NC1CC2(CCC2)C1)c1c(O)c2cccnc2n(Cc2ccc(F)cc2)c1=O` [Compound 134, 1-(4-fluorobenzyl)-4-hydroxy-2-oxo-N-(spiro[3.3]heptan-2-yl)-1,2-dihydro-1,8-naphthyridine-3-carboxamide], the results for the IC50 at human CB2 receptor and on human recombinant CB1R (setting [1]) were 100 to 999 nM and above 1000 nM, respectively.

For `O=C(NC1CC2(CCC2)C1)c1c(O)c2cccnc2n(CCN2CCOCC2)c1=O` [Compound 135, 4-hydroxy-2-oxo-1-(2-morpholinoethyl)-N-(spiro[3.3]heptan-2-yl)-1,2-dihydro-1,8-naphthyridine-3-carboxamide], the IC50 on human CB2 receptor (setting [2]) is below 100 nM; at human recombinant CB1R (setting [1]), above 1000 nM.

For the compound `O=C(NC12CC(C1)C2)c1c(O)c2cccnc2n(CCN2CCOCC2)c1=O` [Compound 136, N-(bicyclo[1.1.1]pentan-1-yl)-4-hydroxy-1-(2-morpholinoethyl)-2-oxo-1,2-dihydro-1,8-naphthyridine-3-carboxamide], the IC50 at human CB2 receptor (setting [2]) and at human recombinant CB1R (setting [1]) was above 1000 nM throughout.

Regarding `C[C@H]1CC[C@@H](NC(=O)c2c(O)c3cccnc3n(CCN3CCOCC3)c2=O)CC1` [Compound 137, 4-hydroxy-N-((1s, 4s)-4-methylcyclohexyl)-1-(2-morpholinoethyl)-2-oxo-1,2-dihydro-1,8-naphthyridine-3-carboxamide], the IC50 was 15 nM at human CB2 receptor (setting [3]) and above 10000 nM at human recombinant CB1R (setting [4]).

Take `O=C(NC1(CO)CCCCC1)c1c(O)c2cccnc2n(CCN2CCOCC2)c1=O` [Compound 138, 4-hydroxy-N-[1-(hydroxymethyl)cyclohexyl]-1-(2-morpholinoethyl)-2-oxo-1,8-naphthyridine-3-carboxamide]: the values for the IC50 on human CB2 receptor and at human recombinant CB1R (setting [1]) were 100 to 999 nM and above 1000 nM, respectively.

For `O=C(NC12CC(C1)C2)c1c(O)c2cccnc2n(Cc2ccc(F)cc2)c1=O` [Compound 139, N-(1-bicyclo[1.1.1]pentanyl)-1-[(4-fluorophenyl)methyl]-4-hydroxy-2-oxo-1,8-naphthyridine-3-carboxamide], the IC50 on human CB2 receptor (setting [2]) and on human recombinant CB1R (setting [1]) was above 1000 nM each time.

`CC(C)(CO)NC(=O)c1c(O)c2cccnc2n(Cc2ccc(F)cc2)c1=O` [Compound 140, 1-[(4-fluorophenyl)methyl]-4-hydroxy-N-(2-hydroxy-1,1-dimethyl-ethyl)-2-oxo-1,8-naphthyridine-3-carboxamide]: the IC50 on human CB2 receptor is 100 to 999 nM; on human recombinant CB1R (setting [1]), above 1000 nM.

Turning to `CC12CC(NC(=O)c3c(O)c4cccnc4n(Cc4ccc(F)cc4)c3=O)(C1)C2` [Compound 141, 1-[(4-fluorophenyl)methyl]-4-hydroxy-N-(3-methyl-1-bicyclo[1.1.1]pentanyl)-2-oxo-1,8-naphthyridine-3-carboxamide], the figures for the IC50 at human CB2 receptor and on human recombinant CB1R (setting [1]) were 100 to 999 nM and above 1000 nM, respectively.

For `O=C(NC1CC2(CC2)C1)c1c(O)c2cccnc2n(Cc2ccc(F)cc2)c1=O` [Compound 142, 1-[(4-fluorophenyl)methyl]-4-hydroxy-2-oxo-N-spiro[2.3]hexan-5-yl-1,8-naphthyridine-3-carboxamide], the IC50 on human CB2 receptor is 100 to 999 nM; at human recombinant CB1R (setting [1]), above 1000 nM.

With `C[C@H]1CC[C@@H](NC(=O)c2c(O)c3cccnc3n(Cc3ccc(F)cc3)c2=O)CC1` [Compound 143, 1-(4-fluorobenzyl)-4-hydroxy-N-((1s, 4s)-4-methylcyclohexyl)-2-oxo-1,2-dihydro-1,8-naphthyridine-3-carboxamide], the IC50 on human CB2 receptor (setting [3]) stood at 34 nM; on human recombinant CB1R (setting [4]), 3360 nM.

Take `C[C@H]1CC[C@H](NC(=O)c2c(O)c3cccnc3n(Cc3ccc(F)cc3)c2=O)CC1` [Compound 144, 1-(4-fluorobenzyl)-4-hydroxy-N-((1r, 4r)-4-methylcyclohexyl)-2-oxo-1,2-dihydro-1,8-naphthyridine-3-carboxamide]: the IC50 is 1500 nM on human CB2 receptor (setting [3]) and above 10000 nM on human recombinant CB1R (setting [4]).

As to `O=C(NC1(CO)CCCCC1)c1c(O)c2cccnc2n(Cc2ccc(F)cc2)c1=O` [Compound 145, 1-[(4-fluorophenyl)methyl]-4-hydroxy-N-[1-(hydroxymethyl)cyclohexyl]-2-oxo-1,8-naphthyridine-3-carboxamide], the IC50 on human CB2 receptor (setting [2]) was below 100 nM; on human recombinant CB1R (setting [1]), above 1000 nM.

As to `O=C(NC12CC(C1)C2)c1c(O)c2nccnc2n(CCN2CCOCC2)c1=O` [Compound 146, N-(bicyclo[1.1.1]pentan-1-yl)-8-hydroxy-5-(2-morpholinoethyl)-6-oxo-5,6-dihydropyrido[2,3-b]pyrazine-7-carboxamide], the IC50 on human CB2 receptor (setting [2]) and on human recombinant CB1R (setting [1]) was above 1000 nM throughout.

Turning to `O=C(NC12CC(C1)C2)c1c(O)c2nccnc2n(Cc2ccc(F)cc2)c1=O` [Compound 147, N-(bicyclo[1.1.1]pentan-1-yl)-5-(4-fluorobenzyl)-8-hydroxy-6-oxo-5,6-dihydropyrido[2,3-b]pyrazine-7-carboxamide], the IC50 at human CB2 receptor (setting [2]) and on human recombinant CB1R (setting [1]) was above 1000 nM throughout.

In the case of `COc1ccc(-c2cnc3c(c2)c(O)c(C(=O)N[C@H]2CC[C@H](C)CC2)c(=O)n3CCN2CCOCC2)cc1` [Compound 148, 4-hydroxy-6-(4-methoxyphenyl)-N-((1R,4R)-4-methylcyclohexyl)-1-(2-morpholinoethyl)-2-oxo-1,2-dihydro-1,8-naphthyridine-3-carboxamide], the IC50 at human CB2 receptor (setting [2]) and at human recombinant CB1R (setting [1]) was above 1000 nM in each case.

Regarding `COc1ccc(-c2cnc3c(c2)c(O)c(C(=O)N[C@H]2CC[C@@H](C)CC2)c(=O)n3CCN2CCOCC2)cc1` [Compound 149, 4-hydroxy-6-(4-methoxyphenyl)-N-((1s,4S)-4-methylcyclohexyl)-1-(2-morpholinoethyl)-2-oxo-1,2-dihydro-1,8-naphthyridine-3-carboxamide], the IC50 is below 100 nM on human CB2 receptor (setting [2]) and above 1000 nM on human recombinant CB1R (setting [1]).

Take `COc1ccc(-c2cnc3c(c2)c(O)c(C(=O)N[C@H](C)c2ccc(F)cc2)c(=O)n3CCN2CCOCC2)cc1` [Compound 150, (R)—N-(1-(4-fluorophenyl)ethyl)-4-hydroxy-6-(4-methoxyphenyl)-1-(2-morpholinoethyl)-2-oxo-1,2-dihydro-1,8-naphthyridine-3-carboxamide]: the results for the IC50 at human CB2 receptor and at human recombinant CB1R (setting [1]) were 100 to 999 nM and above 1000 nM, respectively.

Turning to `COc1ccc(-c2cnc3c(c2)c(O)c(C(=O)N[C@@H](C)c2ccc(F)cc2)c(=O)n3CCN2CCOCC2)cc1` [Compound 151, (S)—N-(1-(4-fluorophenyl)ethyl)-4-hydroxy-6-(4-methoxyphenyl)-1-(2-morpholinoethyl)-2-oxo-1,2-dihydro-1,8-naphthyridine-3-carboxamide], the IC50 at human CB2 receptor (setting [2]) and at human recombinant CB1R (setting [1]) was above 1000 nM each time.

For the compound `COc1ccc(-c2cnc3c(c2)c(O)c(C(=O)NC2CCCCC2)c(=O)n3CCN2CCOCC2)cc1` [Compound 152, N-cyclohexyl-4-hydroxy-6-(4-methoxyphenyl)-1-(2-morpholinoethyl)-2-oxo-1,2-dihydro-1,8-naphthyridine-3-carboxamide], the IC50 is 100 to 999 nM at human CB2 receptor and above 1000 nM on human recombinant CB1R (setting [1]).

Consider `O=C(NC1CCCCC1)c1c(O)c2cc(-c3ccc(F)cc3)cnc2n(CCN2CCOCC2)c1=O` [Compound 153, N-cyclohexyl-6-(4-fluorophenyl)-4-hydroxy-1-(2-morpholinoethyl)-2-oxo-1,2-dihydro-1,8-naphthyridine-3-carboxamide], for which the results for the IC50 on human CB2 receptor (setting [2]) and at human recombinant CB1R (setting [1]) were below 100 nM and above 1000 nM, respectively.

Consider `C[C@H]1CC[C@H](NC(=O)c2c(O)c3cc(-c4ccc(OC(F)F)cc4)cnc3n(CCN3CCOCC3)c2=O)CC1` [Compound 155, 6-(4-(difluoromethoxy)phenyl)-4-hydroxy-N-((1R,4R)-4-methylcyclohexyl)-1-(2-morpholinoethyl)-2-oxo-1,2-dihydro-1,8-naphthyridine-3-carboxamide], for which the IC50 at human CB2 receptor (setting [2]) and on human recombinant CB1R (setting [1]) was above 1000 nM throughout.

Consider `C[C@H]1CC[C@@H](NC(=O)c2c(O)c3cc(-c4ccc(OC(F)F)cc4)ccc3n(CCN3CCOCC3)c2=O)CC1` [Compound 158, 6-(4-(difluoromethoxy)phenyl)-4-hydroxy-N-((1s,4S)-4-methylcyclohexyl)-1-(2-morpholinoethyl)-2-oxo-1,2-dihydroquinoline-3-carboxamide], for which the IC50 on human CB2 receptor (setting [2]) was below 100 nM; at human recombinant CB1R (setting [1]), above 1000 nM.

As for `C[C@H]1CC[C@@H](NC(=O)c2c(O)c3cc(-c4ccc(F)cc4)ccc3n(CCN3CCOCC3)c2=O)CC1` [Compound 159, 6-(4-fluorophenyl)-4-hydroxy-N-((1s,4S)-4-methylcyclohexyl)-1-(2-morpholinoethyl)-2-oxo-1,2-dihydroquinoline-3-carboxamide], the IC50 at human CB2 receptor (setting [2]) was below 100 nM; on human recombinant CB1R, 100 to 999 nM.

In the case of `COc1ccc(-c2ccc3c(c2)c(O)c(C(=O)N[C@H]2CC[C@@H](C)CC2)c(=O)n3CCN2CCOCC2)cc1` [Compound 161, 4-hydroxy-6-(4-methoxyphenyl)-N-((1s,4S)-4-methylcyclohexyl)-1-(2-morpholinoethyl)-2-oxo-1,2-dihydroquinoline-3-carboxamide], the IC50 is below 100 nM at human CB2 receptor (setting [2]) and above 1000 nM on human recombinant CB1R (setting [1]).
